The nature of assay [1]: Liposome sedimentation assay. The class given is binding. The note with it: 20 μM peptide, 30 min room temperature, 200,000 × g, SDS-PAGE. On the procedure: To prepare the liposomes, phospholipids DMPC and Cardiolipin purchased from Avanti Polar Lipids (Alabaster, AL, USA) were dissolved in Chloroform:Methanol:Water in the ratio of (65:25:4) and (73:23:3) respectively, and dried under vacuum for 1 h. The lipid film was suspended in the assay buffer (20 mM HEPES, 150 mM NaCl, pH 7.0), vortexed, and sonicated for 15 min to form the liposomes. The assay was carried out by incubating 2 mM of the liposomes with 20 μM of NCR169C17–38 peptide and incubated for 30 min at room temperature, followed by ultracentrifugation at 200,000 × g for 15 min at 20 °C. After centrifugation, the supernatant (sn) and pellet (p) fractions were collected separately and were subjected to glycine-SDS-PAGE. The peptides were detected by Coomassie Brilliant Blue staining.
Prepared liposomes were incubated with NCR169C17–38, then separated by ultracentrifugation. Peptide remaining in the supernatant (sn) fraction indicated no binding, whereas peptide detected in the pellet (p) fraction indicated liposome association.

The test system of another assay is E. coli genomic DNA. As to the kind of experiment: Gel retardation assay. The class given is binding, Escherichia coli. The note with it: 100 ng E. coli genomic DNA, 10 or 100 µM peptide, 30 min at 37 °C. The method, then:
(§1) The DNA- and RNA-binding abilities of NCR169C17–38, its parental peptide NCR169, and two shorter derivatives (NCR169_16–27 and NCR169_17–27) were initially evaluated using a gel retardation assay. In this setup, 100 ng of either E. coli genomic DNA or total RNA was incubated with 10 µM or 100 µM of each peptide for 30 min at 37 °C. Reaction mixtures, along with untreated controls, were then subjected to agarose gel electrophoresis, and the resulting nucleic acid migration patterns were examined for changes indicative of peptide binding. The interaction of NCR169C17–38 with circular plasmid DNA (pDEST-GBKT7) was also characterized using peptide concentrations ranging from 50 µM to 0.8 µM, prepared by 2-fold serial dilution. Experiments were done in three biological replicates.
(§2) To explore whether the NCR169C17–38 peptide has secondary intracellular targets of the bacterial cells beyond the primary membrane disruption, we tested its possible interaction with nucleic acids in gel retardation assays. A pilot experiment indicated strong DNA-binding capacity, prompting us to include the parental NCR169 peptide and the shorter derivatives NCR169_16–27 and NCR169_17–27 for comparison (Fig. 3.). […] Similar results were obtained with total E. coli RNA (Fig. 3.B). […]

For another assay, the system named is E. coli total RNA. The assay is described as follows: Gel retardation assay. The class given is binding, Escherichia coli. The note with it: 100 ng E. coli total RNA, 10 or 100 µM peptide, 30 min at 37 °C. The method, then:
as §1, §2

The structures appear in SMILES notation. Residues, ends and D or L forms follow the SMILES beside them.

Take `CC[C@H](C)[C@H](NC(=O)[C@H](CCCCN)NC(=O)[C@H](Cc1ccccc1)NC(=O)[C@H](CC(C)C)NC(=O)[C@@H]1CCCN1C(=O)[C@H](CCCCN)NC(=O)[C@H](CCCCN)NC(=O)[C@H](CO)NC(=O)[C@@H](N)CCCCN)C(=O)N[C@@H](Cc1c[nH]c2ccccc12)C(=O)N[C@@H](CCCCN)C(=O)N[C@@H](CS)C(=O)N[C@H](C(=O)N[C@@H](CCC(=O)O)C(=O)N[C@@H](CC(N)=O)C(=O)N[C@H](C(=O)N[C@@H](CS)C(=O)N[C@H](C(=O)N[C@@H](CC(C)C)C(=O)N[C@@H](Cc1c[nH]c2ccccc12)C(=O)N[C@@H](Cc1ccc(O)cc1)C(=O)N[C@@H](CCCCN)C(N)=O)C(C)C)C(C)C)C(C)C` [NCR169C17–38] (H-KSKKPLFKIWKCVENVCVLWYK-NH2; N-terminus assumed): the figures for the liposome binding result in assay [1] (2 mM Cardiolipin liposomes) and in assay [1] (2 mM DMPC liposomes) were “bound strongly” and “no binding”, respectively. Moreover, in the assay on E. coli genomic DNA, the “DNA binding, gel retardation” value was “completely preventing DNA migration from the well at the lower concentration”. Besides, the “RNA binding, gel retardation” value in the assay with E. coli total RNA is given as “completely blocked RNA migration at high concentrations”.

The values above are taken from article PMC12811501, “A plant-derived antimicrobial peptide with multiple mechanisms of action exhibiting antibacterial and antibiofilm activities comparable to or superior to polymyxin B” (Current Research in Microbial Sciences, 2025).
